Assay results published in ChEMBL document CHEMBL1177729, “Nortriterpene lactones from the fruits of Schisandra arisanensis” (2010).

Experiments:
Neutrophil = experiment: Antiinflammatory activity in human neutrophils assessed as inhibition of FMLP/CB-induced elastase release at 10 ug/mL; assay type: functional
Human alphaherpesvirus 1 = experiment: Antiviral activity against HSV1 KOS infected in african green monkey Vero cells assessed as inhibition of viral plaque formation in […] cells at 100 uM after 5 days by plaque reduction assay; assay type: functional; conditions: Human alphaherpesvirus 1, KOS, 120 h

SMILES | inhibition at 10 µg/mL (Neutrophil) [%] | inhibition at 100 µM (Human alphaherpesvirus 1) [%]
O=c1c(-c2ccc(O)cc2)coc2cc(O)cc(O)c12 [GENISTEIN] | 51.6 | 
C[C@@H]1C(=O)O[C@H]2[C@@H]1O[C@]13O[C@@]4(CC[C@]5(C)C(=O)[C@H](C)[C@H]2[C@]15C)C[C@]12OC(=O)C[C@@]1(O)OC(C)(C)[C@@H]2C[C@H](O)[C@H]4C3=O [SCHINDILACTONE E] |  | 30
C[C@H]1C(=O)[C@@]2(C)CC[C@]34C[C@]56OC(=O)C[C@@]5(O)OC(C)(C)[C@@H]6C[C@H](O)[C@H]3C(=O)[C@@]3(O[C@H]5[C@H](OC(=O)[C@]5(C)O)[C@@H]1[C@]32C)O4 [ARISANLACTONE B] | 22.2 | 25
C[C@H]([C@H](O)[C@@H]1C[C@@H](C)C(=O)O1)[C@@H]1[C@H]2[C@]1(C)CC[C@@]13O[C@]2(O)C(=O)[C@@H]1CC[C@H]1C(C)(C)O[C@@H]2[C@@H](O)C(=O)O[C@@]21[C@H]3O | 18.5 | 
